How the values were obtained:
[1] = target: T1, hGWL-KinDom (Homo sapiens, UniProt Q96GX5); assay: Kinase-Glo Max luminescence kinase assay with hGWL-KinDom; assay type: biochemical; details: Kinase-Glo Max assay; read-out: IC50 GWL-KinDom
T1 construct: that encoded amino acids (aa) 1-194 + ‘RTFC’ + 740-879 of hGWL; GST (rhinovirus 3C-protease cleavable) (N, cleaved yes); made in house; host or cells: E. coli Rosetta2(DE3)
Method: Non-radioactive kinase assays were set-up by combining hGWL-KinDom (305 µM in 20 mM HEPES pH 7.5, FL 500 mM NaCl, and 0.5 mM TCEP) diluted to desired concentration or immunoprecipitated hGWL on beads with ultra-pure ATP [Promega, 25 µM] and His-tagged substrate  α-endosulfine (ENSA, 2 µM) in kinase assay buffer (50 mM Tris-HCl pH 7.5, 0.5 mM EGTA, 150 mM NaCl, 0.1% v/v NP-40 and 15 mM MgCl2). The reaction was allowed to proceed for 30 min at 37 °C or another indicated time-point after which it was stopped with either SDS loading buffer (5X buffer, including 0.25 % w/v Bromophenol blue, 0.5 M DTT (dithiothreitol), 50% v/v Glycerol, 10% v/v SDS (sodium dodecyl sulphate), and 0.25M Tris-HCl pH 6.8) or Kinase-Glo Max reagent [Promega]. Recombinant His-tagged ENSA was purified using Ni-NTA agarose [QIAGEN] from BL21 E. coli following the manufacturer’s recommended protocol. […]
(§1) All kinase assays were repeated thrice per assay condition and each point on the concentration-dependent response curves represents the mean ± […]
After stopping the above non-radioactive kinase assay with 1 volume of Kinase-Glo Max reagent the mixture was allowed to incubate for a further 15 min. To detect consumption of ATP, samples were transferred to white, flat-bottom 96-well plates [Thermo Fisher Scientific, Loughborough, UK] and luminescence was detected using a POLARstar Omega micro-plate reader [BMG Labtech GmbH, Ortenberg, Germany]. As this assay measures ATP, activity or ATP turnover was measured as the -ΔRLU. […]

[2] = target: T2, hGWL^FL (Homo sapiens, UniProt Q96GX5); assay: Immunoprecipitation kinase assay with Flag-tagged hGWL^FL (p-ENSA western); assay type: biochemical; details: for IC50: immunoprecipitated Flag-tagged hGWL^FL, read-out: IC50 GWL^FL
T2 construct: N-terminally FLAG-tagged full-length human GWL; made in house; host or cells: HEK293T cells, transfected and nocodazole-arrested; protein captured on anti-Flag M2 beads
T2 sequence (Q96GX5 1-879): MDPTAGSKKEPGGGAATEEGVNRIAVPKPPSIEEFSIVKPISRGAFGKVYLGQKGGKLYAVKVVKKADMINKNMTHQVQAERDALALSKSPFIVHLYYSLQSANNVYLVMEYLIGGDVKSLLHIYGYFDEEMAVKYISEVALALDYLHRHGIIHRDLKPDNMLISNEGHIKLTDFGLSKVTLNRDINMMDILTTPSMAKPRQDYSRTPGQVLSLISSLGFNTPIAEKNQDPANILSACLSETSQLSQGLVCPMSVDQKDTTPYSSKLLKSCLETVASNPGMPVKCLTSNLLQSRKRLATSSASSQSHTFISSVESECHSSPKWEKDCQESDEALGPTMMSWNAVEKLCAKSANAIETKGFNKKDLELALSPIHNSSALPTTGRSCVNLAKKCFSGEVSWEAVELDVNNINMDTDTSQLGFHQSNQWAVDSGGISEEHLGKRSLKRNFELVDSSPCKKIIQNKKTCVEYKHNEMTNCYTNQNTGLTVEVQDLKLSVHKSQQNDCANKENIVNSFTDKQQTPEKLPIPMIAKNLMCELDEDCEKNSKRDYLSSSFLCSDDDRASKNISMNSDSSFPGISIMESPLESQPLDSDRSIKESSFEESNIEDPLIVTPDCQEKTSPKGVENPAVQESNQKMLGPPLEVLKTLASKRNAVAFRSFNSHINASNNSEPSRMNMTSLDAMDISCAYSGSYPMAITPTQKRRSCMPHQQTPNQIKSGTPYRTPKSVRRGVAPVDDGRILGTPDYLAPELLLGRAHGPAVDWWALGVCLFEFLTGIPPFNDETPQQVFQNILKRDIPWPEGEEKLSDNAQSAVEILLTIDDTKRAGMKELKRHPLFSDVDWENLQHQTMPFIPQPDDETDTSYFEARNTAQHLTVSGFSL
Method: 500 mM NaCl, and 0.5 mM TCEP) diluted to desired concentration or immunoprecipitated hGWL on beads with ultra-pure ATP [Promega, 25 µM] and His-tagged substrate  α-endosulfine (ENSA, 2 µM) in kinase assay buffer (50 mM Tris-HCl pH 7.5, 0.5 mM EGTA, 150 mM NaCl, 0.1% v/v NP-40 and 15 mM MgCl2). The […]
(dithiothreitol), 50% v/v Glycerol, 10% v/v SDS (sodium dodecyl sulphate), and 0.25M Tris-HCl pH 6.8) or Kinase-Glo Max reagent [Promega]. Recombinant His-tagged ENSA was purified using Ni-NTA agarose [QIAGEN] from BL21 E. coli following the manufacturer’s recommended protocol. […]
as §1
Immunoprecipitation Kinase Assay
HEK293T cells were transfected with 10 µg of plasmid (Flag-tagged hGWLFL or GFP; pcDNA3-EGFP, Addgene, Cambridge MA, USA) using CaCl2. […]
incubated for a further 16–18 h. Cells were collected and washed in PBS-A followed by lysis on ice for 20 min in 1mL IP buffer (50 mM Tris-HCl pH 7.5, 150 mM NaCl, 10% v/v glycerol, 0.5% v/v NP-40, 1 mM EDTA supplemented with protease and phosphatase inhibitors (Complete and PhosStop; Roche Diagnostics)). Samples were then sonicated and clarified by centrifugation at 13,000 rpm for 30 min at 4°C. To capture Flag-tagged […]
hGWLFL, 100 µl of lysate was diluted 5-fold with IP buffer and combined with 3 µl anti-Flag M2 magnetic Dynabeads [Sigma-Aldrich] overnight at 4 °C. After sequential washes with IP buffer, 1:1 mix of IP and kinase assay buffers and a final wash in kinase assay buffer, the beads were then used in the kinase assay. The reaction was stopped by adding SDS loading buffer and analysed by western blot: p-ENSA and GWL levels were detected using the anti-phospho(Ser67)-ENSA and anti-MASTL(GWL, Prestige) antibodies. Activity was measured as the p-ENSA/GWL ratio and % kinase activity was normalised to the DMSO control. All kinases assays were repeated thrice per assay condition and each point on the concentration-dependent response curves represents the mean ± 1 S.D. […]

T1 sequence (Q96GX5 with tags, fused parts or gaps limits assumed): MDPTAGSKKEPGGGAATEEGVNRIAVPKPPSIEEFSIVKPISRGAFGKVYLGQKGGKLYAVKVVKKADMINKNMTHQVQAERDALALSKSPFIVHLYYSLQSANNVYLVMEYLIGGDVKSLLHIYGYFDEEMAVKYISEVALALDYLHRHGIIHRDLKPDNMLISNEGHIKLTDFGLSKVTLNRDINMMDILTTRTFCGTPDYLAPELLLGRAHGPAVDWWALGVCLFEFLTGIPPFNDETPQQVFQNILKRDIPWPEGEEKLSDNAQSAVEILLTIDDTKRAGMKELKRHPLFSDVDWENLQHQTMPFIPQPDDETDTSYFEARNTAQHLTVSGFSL

Row | IC50 [1] [µM] | inhibitory ratio (IC50 GWL^FL/IC50 GWL-KinDom) ([2]; for GKI-1: EC50 hGWL^FL vs IC50 hGWL-KinDom) | EC50 ([2]; immunoprecipitated hGWL^FL, read-out: EC50 GWL^FL) [µM] | IC50 [2] [µM] | SMILES
1 | 2.5 | ~ 2 | 4.9 |  | Clc1ccc(Nc2cccc(-c3cn[nH]c3)c2)cc1 [GKI-1, N-(4-chlorophenyl)-3-(1H-pyrazol-4-yl)aniline]
2 | 3.22 ± 0.31 |  |  | 2.5 | CCN(CC)Cc1ccc(Nc2nccc(-c3cnn4ncccc34)n2)cc1 [GRI-4]
3 | 109 ± 13.7 |  |  | 66 | CN(C)CC#Cc1cccc(C(=O)c2cnn(-c3ccc(F)cc3)c2N)c1 [GRI-3]
